Measured values as given in patent publication US5977144A (priority 1997, dated 1999).
“Also recorded” adds a separate entry of the source. Where a name gives a salt, the structure may show the parent alone. Read-outs that look alike come from different tables or passages of the source.

Legend:
[1] = molecular target: alpha7 receptor (high affinity alpha-bungarotoxin binding, rat brain membranes) (Rattus norvegicus, UniProt Q05941); assay: biochemical
rat alpha7 receptor [2] = molecular target: T1, rat alpha7 receptor (Rattus norvegicus, UniProt Q05941); assay: cell-based
Experimental: FIG. 13A. Effects of chronic injections of DMXB or nicotine on high affinity [^3 H]ACh or [^125 I]α-bungarotoxin (BTX) binding in rat neocortices. Adult male rats were injected with saline vehicle, 1 mg/kg DMXB or 0.2 mg/kg nicotine (NIC) (IP) daily for 2 weeks. At that time, neocortices were removed and assayed for high affinity [^3 H]ACh or [^125 I]α-bungarotoxin binding as described in the text. […] Responses of rat α7 ACHR to 3-CA, 2-MeOCA and 4-MeOCA. Concentration-response relationships for the peak agonist activated currents of oocytes injected with RNA coding for the rat α7 subunit. All responses were initially measured relative to the individual oocyte-response to 500 μM ACh, applied 5 min prior to drug-application. Responses were normalized relative to the maximum response obtainable with ACh so that a response of 1 represents full efficacy. The ratio of 500 μM ACh control response to ACh maximum was taken from Papke et al., 1997.
(§1) Oocytes were prepared and recordings made as described previously (de Fiebre, et al., 1995). Frogs were anesthetized by submersion in 0.1% (3)-aminobenzoic acid ethyl ester and several lobes of the ovary surgically removed through a small incision in the abdomen wall. Oocytes were freed from the follicle cells by treatment with collagenase (in calcium-free Barth's solution: 88 mM NaCl, 1 mM KCl, 15 mM Hepes pH 7.6, 0.33 mM MgSO4, 0.1 mg/ml gentamicin sulfate) for 2 hr at room temperature and Stage 5 oocytes were isolated. Oocytes were rinsed and stored at 18° C. in Barth's saline (88 mM NaCl, 1 mM KCl, 15 mM Hepes pH 7.6, 0.3 mM Ca(NO3)2, 0.41 mM CaCl2, 0.82 mM MgSO4, 0.1 mg/ml gentamicin sulfate) before and after microinjection with RNA. Microinjection was conducted with a Drummond Scientific "Nanoject Variable" automatic injector. Oocytes were injected with a 50 nl solution of specified rat nicotinic subunit mRNA species (2-10 mg/ml; derived from the cDNA containing HIP 306 plasmid kindly provided by Dr. Jim Boulter, Salk Institute) and incubated 2-7 days at 18° C. before electrophysiological recording. electrophysiological recordings, oocytes were perfused in a Warner Instruments RC-8 recording chamber with a perfusion solution containing 115 mM NaCl, 2.5 mM KCl, 10 mM Hepes pH 7.2, 1.8 mM CaCl2 and 1 μM atropine to block muscarinic responses. Perfusion was continuous at a rate of 10 ml/min. Drags were diluted in perfusion solution and applied using a solenoid valve to switch from perfusion to drug solutions. Current responses to drug administration were studied under two electrode voltage clamp at a holding potential of -70 mV using a Dagan Corp. TEV-200 voltage clamp connected to a 386-SX IBM computer using a TL-1 DMA interface (Axon Instruments). Micropipettes were filled with 3 M KCl and had resistances of 0.5-2 MOhms. Drug responses are analyzed with PClamp software (Axon Instruments). Oocytes with resting potentials of less than -30 mV were rejected.

rat alpha4beta2 receptor = rat alpha4beta2 receptor (Rattus norvegicus, UniProt P09483+P12390); assay: Activation of alpha4beta2 receptors expressed in Xenopus oocytes; type: cell-based; settings: for Emax: read-out: alpha4beta2 activation: response compared to maximal acetylcholine
Experimental: FIG. 14A. Responses of α4β2 ACHR to 3-CA, 2-MeOCA or 4-MeOCA. Concentration-response relationships for the peak agonist activated currents of oocytes injected with RNA coding for rat α4β2 subunits. Responses are first expressed relative to the response to 10 μM ACh, applied 5 min before drug-application, then normalized to the maximum response obtainable with ACh so that a response of 1 represents full efficacy. The ratio between 10 μM ACh and maximum ACh response was determined in separate experiments.
as §1

rat alpha7 receptor [3] = molecular target: T1, rat alpha7 receptor; assay: cell-based; set-up: Oocytes Antagonist: unit not given here
Experimental: FIG. 13B. Effects of chronic injections of DMXB or nicotine on high affinity [^3 H]ACh or [^125 I]α-bungarotoxin (BTX) binding in rat neocortices. Adult male rats were injected with saline vehicle, 1 mg/kg DMXB or 0.2 mg/kg nicotine (NIC) (IP) daily for 2 weeks. At that time, neocortices were removed and assayed for high affinity [^3 H]ACh or [^125 I]α-bungarotoxin binding as described in the text. […] Responses of rat α7 AChR to 3-CA, 2-MeOCA and 4-MeOCA. […] All responses are expressed relative to the oocyte-response to 500 μM ACh applied 5 min prior to the experimental agonist application.
as §1
Antagonist properties subsequent to agonist activity were measured as a decrease in responsiveness to ACh applied 5 min after compound-application, normalized to ACh application instead of the anabaseine-derivative (FIG. 13A AND FIG. 13B).

[4] = test system: rat primary neocortical neurons; type: cell-based
rat = assay: Focal ischemia infarct size in rats; type: in vivo; settings: 0.5 mg/kg IP mecamylamine with DMXB
Experimental: FIG. 3. […] Rats received a 30 minute ischemia attack through tying of their common carotid; the amount of cell death (proportional to Infarct Size) was determined 24 hours later. Some animals received the benzylidene-anabaseine compound DMXB (1 mg/kg IP, salt weight) 1 hour before ligation, or the nicotinic antagonist mecamylamine (0.5 mg/kg IP), or both mecamylamine and DMXB, or DMXB 5 minutes after the ligation.
Male Sprague Dawley albino male rats (250-300 g) were anesthetized with a subcutaneous injection of ketamine, xylazine, and acepromazine (3:3:1 mixture, 0.7 cc/kg). Atropine (0.4 mg/kg IP) was injected several min prior to dissection of the carotid artery from the vagus. The internal carotid artery (ICA) was dissected until its proximal bifurcation into the terminal ICA and pterygopalatine arteries were clearly defined. The pterygopalatine artery was clipped parallel to and flush with the terminal ICA. Another clip was applied to the common carotid artery (CCA). The distal aspect of the external carotid artery (ECA) was coagulated and a straight aneurysm clip was applied 4 mm distal to the proximal ICA bifurcation. A suture was passed through the arteriotomized ECA stump into the ICA until the tip was resting against the aneurysm clip. The suture was removed 30 min later, with body temperature maintained between 36.5-37.5° C. The ECA stump was coagulated with bipolar electrocautery. Clips were removed and the wound was irrigated with saline prior to suturing.
Rats were euthanised 24 hours post-infarction and their brains removed and sectioned coronally (2 mm). Sections were placed into a 2% solution of 2,3,5-triphyenyl-tetrazolium cholide (Sigma Chemical Co., St. Louis. Mo.) for 20 minutes at 37° C. The sections were removed to a petri dish and covered with 10% formaldehyde solution. The outline function of the NIH Image computer program (version 1.47) was used to estimate the infarcted and total brain areas for each section. Infarct size was calculated as percent of total brain area.

PC12 cells = type: cell-based; settings: 10 μM (NGF 100 ng/ml); 4 days after removal of serum and NGF; mean±SEM; * p<0.05
Experimental: PC12 cell-culture methods were modified from Greene and Tischler (1976). Cells were plated at 30-40% confluence and grown in Dulbecco's Modified Eagle Medium containing 10% heat-inactivated horse serum, 5% fetal bovine serum, 100 units/ml penicillin, 100 μg/ml streptomycin and 0.5 mM 1-glutamine. Cultures were maintained at 37° C., […] /6% CO2 and 90-92% humidity in culture plates pre-coated with poly-1lysine (10 g/L). Cultures were maintained for 7 days in serum-supplemented medium to which 100 ng/ml rat 2.5S NGF was added at day 1. On day 7, conditioned medium was replaced serum-free medium containing specified drugs. Four days later, cell density was estimated using the NIH Image program version 1.47 and number of neurite-expressing cells counted manually in blind fashion as described previously (Martin et al., 1994). A Nikon inverted microscope (100× magnification) was attached to a Mac II computer via a monochrome video camera (Cohu, Inc., San Diego, Calif.). Four random areas were counted per plate and there were 4 plates per treatment group, unless otherwise indicated. Neurites were defined as processes at least 2× the length of the perikaryon. To assess the reliability of the image analyses, a reticle was used for direct quantification of cells in the same view as the one analyzed in random samples.
PC12 cells were differentiated for 1 week with NGF. Drugs were administered for the 4 day interval after removal of serum and NGF. Neuites were counted and expressed as the mean±SEM of at least 3 plates/group.

[5] = Table 4, read-out: Receptor Binding α7
[6] = read-out: alpha7 activation: response, normalized to 500 μM acetylcholine (maximum response)
[7] = read-out: alpha7 binding: % Inhibition of high affinity alphabungarotoxin binding (1 nM)

Chain of rat alpha4beta2 receptor (P09483 31-630): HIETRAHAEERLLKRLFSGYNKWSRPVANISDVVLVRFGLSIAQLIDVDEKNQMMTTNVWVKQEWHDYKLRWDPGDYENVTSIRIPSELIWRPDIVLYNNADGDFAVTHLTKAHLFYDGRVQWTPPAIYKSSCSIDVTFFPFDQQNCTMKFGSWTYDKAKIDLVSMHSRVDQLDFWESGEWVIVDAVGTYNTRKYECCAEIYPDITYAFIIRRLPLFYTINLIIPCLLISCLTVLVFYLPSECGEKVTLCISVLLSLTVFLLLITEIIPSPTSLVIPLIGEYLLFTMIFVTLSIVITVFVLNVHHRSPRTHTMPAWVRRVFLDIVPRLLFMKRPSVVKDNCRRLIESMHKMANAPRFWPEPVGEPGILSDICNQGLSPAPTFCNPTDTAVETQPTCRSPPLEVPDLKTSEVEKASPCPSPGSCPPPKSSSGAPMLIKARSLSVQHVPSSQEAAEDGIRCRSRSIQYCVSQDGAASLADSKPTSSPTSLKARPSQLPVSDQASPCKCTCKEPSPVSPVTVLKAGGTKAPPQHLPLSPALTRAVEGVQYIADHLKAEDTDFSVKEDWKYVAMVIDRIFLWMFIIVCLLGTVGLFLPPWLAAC
Chain of rat alpha4beta2 receptor (P12390 25-500): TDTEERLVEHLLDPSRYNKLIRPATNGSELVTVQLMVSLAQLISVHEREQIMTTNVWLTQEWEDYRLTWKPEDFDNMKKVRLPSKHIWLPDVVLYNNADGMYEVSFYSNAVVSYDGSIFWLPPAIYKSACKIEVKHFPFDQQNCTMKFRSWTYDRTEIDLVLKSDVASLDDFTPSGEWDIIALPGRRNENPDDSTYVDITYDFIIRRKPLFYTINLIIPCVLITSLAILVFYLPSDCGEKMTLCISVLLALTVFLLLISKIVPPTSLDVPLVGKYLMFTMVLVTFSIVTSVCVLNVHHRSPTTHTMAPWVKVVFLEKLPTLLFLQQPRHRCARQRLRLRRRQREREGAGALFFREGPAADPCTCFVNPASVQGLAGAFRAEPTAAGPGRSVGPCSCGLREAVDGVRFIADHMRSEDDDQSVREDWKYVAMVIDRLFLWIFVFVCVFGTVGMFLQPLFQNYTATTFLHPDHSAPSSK
Chain of alpha7 receptor (high affinity alpha-bungarotoxin binding, rat brain membranes) (Q05941 23-502): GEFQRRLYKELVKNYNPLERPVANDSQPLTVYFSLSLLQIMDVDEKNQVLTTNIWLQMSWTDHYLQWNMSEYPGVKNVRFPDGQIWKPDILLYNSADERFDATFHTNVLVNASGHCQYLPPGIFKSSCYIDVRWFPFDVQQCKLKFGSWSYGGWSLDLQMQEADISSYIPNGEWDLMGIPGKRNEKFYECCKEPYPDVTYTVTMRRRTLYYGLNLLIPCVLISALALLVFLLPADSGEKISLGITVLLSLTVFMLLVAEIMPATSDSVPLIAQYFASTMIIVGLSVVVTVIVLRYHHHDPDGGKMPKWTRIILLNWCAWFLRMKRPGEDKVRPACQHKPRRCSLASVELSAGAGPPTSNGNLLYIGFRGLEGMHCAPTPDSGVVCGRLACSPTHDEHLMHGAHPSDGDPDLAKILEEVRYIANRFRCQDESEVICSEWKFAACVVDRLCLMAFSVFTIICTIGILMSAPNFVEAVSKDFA
T1 sequence (Q05941 23-502): as above

COc1ccc(C=C2CCCNC2c2cccnc2)c(OC)c1 (centres unmarked) [3(4-dimethoxy-benzylidene)anabasine]
inhibition at 1 µM [1, 5]: 9%

COc1ccc(C=C2CCCN=C2c2cccnc2)cc1 [GTS-2, 3-(4-methoxybenzylidene)anabaseine]
Emax (rat alpha7 receptor [2]; [6]): 7%
Emax (rat alpha4beta2 receptor): 5%

Oc1ccc(C=C2CCCN=C2c2cccnc2)cc1 [GTS-7, 3-(4-hydroxybenzylidene)anabaseine]
Emax (rat alpha7 receptor [2]; [6]): 31%
inhibition at 1 µM [1, 5]: 69.3%
inhibition at 1 µM ([1]; concentration of 1 μM (Table 1), read-out: alpha7 binding: % Inhibition of high affinity alphabungarotoxin binding (1 nM)): 69%
Emax (rat alpha4beta2 receptor): 2%

Nc1ccc(C=C2CCCN=C2c2cccnc2)cc1 [GTS-13, 3-(4-aminobenzylidene)anabaseine]
Emax (rat alpha7 receptor [2]; read-out: Oocytes Agonist α7): 72%
Emax (rat alpha7 receptor [2]; [6]): 72%
inhibition at 1 µM ([1]; read-out: Receptor Binding α7): 93%
inhibition at 1 µM [1, 7]: 93%
Oocytes Antagonist (rat alpha7 receptor [3]): .69
Emax (rat alpha4beta2 receptor): 5%

COc1ccc(C=C2CCCN=C2c2cccnc2)c(O)c1 [GTS-51, 3-(2-hydroxy-4-methoxybenzylidene) anabaseine]
Emax (rat alpha7 receptor [2]; read-out: Oocytes Agonist α7): 29%
Emax (rat alpha7 receptor [2]; [6]): 29%
inhibition at 1 µM [1, 7]: 45%
Oocytes Antagonist (rat alpha7 receptor [3]): .26
Emax (rat alpha4beta2 receptor): 1%

COc1cc(O)ccc1C=C1CCCN=C1c1cccnc1 [GTS-62, 3-(4-hydroxy-2-methoxybenzylidene)anabaseine]
Emax (rat alpha7 receptor [2]; read-out: Oocytes Agonist α7): 43%
Emax (rat alpha7 receptor [2]; [6]): 41%
inhibition at 1 µM ([1]; read-out: Receptor Binding α7): 84%
inhibition at 1 µM [1, 7]: 84%
Oocytes Antagonist (rat alpha7 receptor [3]): .35
Emax (rat alpha4beta2 receptor): 4%

COc1ccc(C(C)=C2CCCN=C2c2cccnc2)c(OC)c1 [GTS-80, 3-(2,4-dimethoxy-α-methyl-benzylidene)]
inhibition at 1 µM [1, 5]: 85%

COc1cc(O)ccc1/C=C/C=C1\CCCN=C1c1cccnc1 [GTS-86, trans-3-(4-hydroxy-2-methoxycinnamylidene) anabaseine dihydrochloride]
inhibition at 1 µM [1, 5]: 90%

COc1ccc(/C=C/C=C2\CCCN=C2c2cccnc2)c(OC)c1 [GTS-87, trans-3-(2,4-dimethoxycinnamylidene) anabaseine dihydrochloride]
inhibition at 1 µM [1, 5]: 76%

C[C@]12N[C@H](Cc3ccccc31)c1ccccc12 [MK-801]
protection against glutamate, concomitant (in words) ([4]; 10 μM, with 1 mM glutamate): blocking effect

CN(C)CCCOc1ccc(C=C2CCCN=C2c2cccnc2)cc1 [compound 15, 3(4-dimethylaminopropoxy-benzylidene)anabaseine]
Emax (rat alpha7 receptor [2]; Table 4, read-out: Oocytes Agonist α7): 3%
inhibition at 1 µM [1, 5]: 87%
Oocytes Antagonist (rat alpha7 receptor [3]; Table 4): .02

C[N+](C)(C)CCCCCC[N+](C)(C)C [hexamethonium]
antagonist effect on DMXB-induced neuroprotection (in words) ([4]; against glutamate cytotoxicity): sensitive

CNC1(C)C2CCC(C2)C1(C)C (centres unmarked) [mecamylamine, reference compound]
block of neuroprotective action of DMXB (in words) (rat): blocked this neuroprotective action of DMXB; also recorded: blocking action
antagonist effect on DMXB-induced neuroprotection (in words) ([4]; against glutamate cytotoxicity): sensitive

CCN1C[C@]2(COC(=O)c3ccccc3N3C(=O)C[C@H](C)C3=O)CC[C@H](OC)[C@@]34[C@@H]5C[C@H]6[C@H](OC)[C@@H]5[C@](O)(C[C@@H]6OC)[C@@](O)([C@@H](OC)[C@H]23)[C@@H]14 [methyllycaconitine]
antagonist effect on DMXB-induced neuroprotection (in words) ([4]; against glutamate cytotoxicity): sensitive

CN1CCCC1c1cccnc1 (centres unmarked) [nicotine]
protection by nicotine (in words) [4]: protected against neuronal loss

(7'-methyl-3-(2,4-dimethoxybenzylidene)) anabaseine [7'-methyl-DMXB]
alpha7 activation: response, normalized to 500 μM acetylcholine (maximum response) (rat alpha7 receptor [2]): 0.32
alpha4beta2 activation: response compared to maximal acetylcholine (rat alpha4beta2 receptor; xenopus oocytes): 0.02

NGF: nerve growth factor, 100 ng/ml (rat 2.5S NGF)
Neurite Counts (PC12 cells): 342 ± 56

α-bungarotoxin [reference compound]
Kd ([1]; read-out: Kd, Scatchard analysis (r=0.98; single site model)): 1.9 nM
antagonist effect on DMXB-induced neuroprotection (in words) [4]: sensitive
